Data taken from US9802895B2, “Indole and benzimidazolecarboxamides as insecticides and acaricides” (BAYER CROPSCIENCE AKTIENGESELLSCHAFT, priority 2014, dated 2017).

Experiments:
[1] = tested on: caterpillars of the armyworm (Spodoptera frugiperda); assay: Spodoptera frugiperda spray test (SPODFR); type: in vivo; settings: 100 g/ha, spray, after 7 days
Procedure, shortened: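 Maize leaf discs sprayed with compound in acetone/dimethylformamide diluted in water with 1000 ppm alkylaryl polyglycol ether emulsifier, dried, then infested with armyworm caterpillars. Efficacy in % after 7 days (100% = all caterpillars killed, 0% = none).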

[2] = tested on: engorged adult female cattle ticks (Boophilus microplus); assay: Boophilus microplus injection test (BOOPMI inj); type: in vivo; settings: assessed after 7 days
Procedure, shortened: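 1 μl of compound in DMSO is injected into the abdomen of 5 engorged females per group, which are then held in a climate-controlled room. After 7 days, egg-laying and egg fertility are scored, with unclear eggs kept about 42 days until hatch; 100% means no fertile eggs laid.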

[3] = tested on: adult cat fleas (Ctenocephalides felis); assay: Ctenocephalides felis oral test (CTECFE); type: in vivo; settings: 100 ppm, oral in cattle blood, after 2 days
Procedure, shortened: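 About 20 unfed adult fleas fed through a parafilm membrane on citrated cattle blood containing compound, added from a DMSO stock and diluted to test concentration. Kill % was scored after 2 days, where 100% means all fleas dead and 0% means none.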

[4] = tested on: adult houseflies (Musca domestica); assay: Musca domestica test (MUSCDO); type: in vivo; settings: 100 ppm, after 2 days
Procedure, shortened: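 Ten adult houseflies housed with a sponge carrying sugar solution plus compound, formulated in DMSO and diluted with water to test concentration. Mortality (%) scored after 2 days; 100% = all flies dead.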

[5] = tested on: southern root-knot nematode (Meloidogyne incognita); assay: Meloidogyne incognita test; type: in vivo; settings: 20 ppm, after 14 days
Procedure: Meloidogyne incognita Test Solvent: 125.0 parts by weight of acetone To produce a suitable active compound formulation, 1 part by weight of active compound is mixed with the stated amount of solvent and the concentrate is diluted with water to the desired concentration. Vessels are filled with sand, active compound solution, an egg/larvae suspension of the southern root-knot nematode (Meloidogyne incognita) and lettuce seeds. The lettuce seeds germinate and the plants develop. The galls develop on the roots. After 14 days, the nematicidal efficacy in % is determined by the formation of galls. 100% means that no galls were found; 0% means that the number of galls on the treated plants corresponds to the untreated control.

[6] = tested on: L1 larvae of the Australian sheep blowfly (Lucilia cuprina); assay: Lucilia cuprina test (LUCICU); type: in vivo; settings: 100 ppm, after 2 days
Procedure, shortened: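 About 20 L1 larvae placed in vessels with minced horsemeat containing compound (DMSO formulation diluted with water to test concentration). Kill in % scored after 2 days.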

[7] = log P by HPLC (EEC directive 79/831 Annex V.A8); type: physicochemical; settings: 43° C., acidic range pH 2.7; for log P: HPLC, reversed-phase column (C18)
Procedure, shortened: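 Measured by reversed-phase HPLC on a C18 column at 43 °C per EEC directive 79/831 Annex V.A8. Calibration used unbranched alkan-2-ones (C3–C16) of known log P.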

[8] = tested on: larvae of the mustard beetle (Phaedon cochleariae); assay: Phaedon cochleariae spray test (PHAECO); type: in vivo; settings: 100 g/ha, after 7 days
Procedure, shortened: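 Compound dissolved in acetone/dimethylformamide and diluted with water containing 1000 ppm alkylaryl polyglycol ether emulsifier to test concentrations. Efficacy in % scored after 7 days: 100% means all beetle larvae killed, 0% none killed.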

[9] = tested on: L2 larvae of the banded cucumber beetle (Diabrotica balteata); assay: Diabrotica balteata drench test (DIABBA); type: in vivo; settings: 20 ppm, 8 dat
Procedure: Diabrotica balteata—Drench Test (DIABBA) Solvent: 7 parts by weight of dimethylformamide Emulsifier: 2 parts by weight of alkylaryl polyglycol ether To produce a suitable active compound formulation, 1 part by weight of active compound is mixed with the specified amounts of solvent and emulsifier, and the concentrate is diluted with water to the desired concentration, it being necessary to include the volume of soil which is drenched in the calculation. It should be ensured that a concentration of 40 ppm of emulsifier in the soil is not exceeded. To produce further test concentrations, water is used for dilution. […] After one day, 25 L2 larvae of the banded cucumber beetle (Diabrotica balteata) are added. After 8 days, the efficacy in % is determined 100% means that all 5 plants have germinated and grown; 0% means that none of the plants has emerged.

[10] = tested on: greenhouse red spider mite (Tetranychus urticae); assay: Tetranychus urticae spray test, OP-resistant (TETRUR); type: in vivo; settings: 100 g/ha, spray, after 6 days
Procedure, shortened: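 Bean (Phaseolus vulgaris) leaf discs infested with all stages of OP-resistant Tetranychus urticae were sprayed with compound in acetone/DMF diluted in water with 1000 ppm emulsifier. Efficacy was scored as % mites killed after 6 days.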

[11] = tested on: cattle ticks (Boophilus microplus) Parkhurst strain, SP-resistant; assay: Boophilus microplus dip test; type: in vivo; settings: 20 ppm, assessed after 7 days
Procedure: Boophilus microplus—Dip Test
Test animals: cattle ticks (Boophilus microplus) Parkhurst strain, SP-resistant
Solvent: dimethyl sulphoxide
10 mg of active compound are dissolved in 0.5 ml of dimethyl sulphoxide. For the purpose of producing a suitable formulation, the active compound solution is diluted with water to the concentration desired in each case.
This active compound preparation is pipetted into tubes. 8-10 engorged adult female cattle ticks (Boophilus microplus) are transferred into a further tube with holes. The tube is immersed into the active compound formulation, and all the ticks are completely wetted. After the liquid has run out, the ticks are transferred on filter discs into plastic dishes and stored in a climate-controlled room.
The efficacy is assessed after 7 days by laying of fertile eggs. Eggs which are not visibly fertile are stored in a climate-controlled cabinet until the larvae hatch after about 42 days. An efficacy of 100% means that none of the ticks has laid any fertile eggs; 0% means that all the eggs are fertile.

[12] = tested on: Tick nymphs (Amblyomma hebraeum); assay: Amblyomma hebraeum test (tick nymph immersion); type: in vivo; settings: 100 ppm, after 42 days
Procedure: Amblyomma Hebaraeum Test Solvent: dimethyl sulphoxide To produce a suitable active compound formulation, 10 mg of active compound are mixed with 0.5 ml of dimethyl sulphoxide, and the concentrate is diluted with water to the desired concentration. Tick nymphs (Amblyomma hebraeum) are placed into perforated plastic beakers and immersed in the desired concentration for one minute. The ticks are transferred on filter paper into a Petri dish and stored in a climate-controlled cabinet. After 42 days, the kill in % is determined. 100% means that all of the ticks have been killed; 0% means that none of the ticks have been killed.

Row | chromatographic logP ([7]; reversed-phase C18 HPLC column, pH 2.7, HPLC) | Structure (SMILES) | efficacy [1] | efficacy (laying of fertile eggs) [2] | efficacy (kill in %) [3] | efficacy (kill in %) [4] | nematicidal efficacy (formation of galls) [5] | efficacy (kill in %) [6] | log P [7] | efficacy [8] | % efficacy [9] | efficacy [10] | efficacy (laying of fertile eggs) [11] | efficacy (kill in %) [12]
1 | – | C#CCn1c(C(=O)NC(c2ccc(Cl)c(C(F)(F)F)c2)C(F)(F)F)cc2cc(C(=O)NC3(C(N)=S)CC3)c(Cl)cc21 (stereo not drawn) [I-19] | 100% | 100% | 100% | 100% | 90% | 100% | 3.73 | 100% | 100% | 100% | – | –
2 | 3.56 | CCn1c(C(=O)NC(c2ccc(F)c(C(F)(F)F)c2)C(F)(F)F)nc2cc(C(=O)NC3(C(N)=S)CC3)c(Cl)cc21 (stereo not drawn) [I-30, N5-(1-Carbamothioylcyclopropyl)-6-chloro-1-ethyl-N2-{2,2,2-trifluoro-1-[4-fluoro-3-(trifluoromethyl)phenyl]ethyl}-1H-benzimidazole-2,5-dicarboxamide] | 100% | 100% | 100% | 100% | – | 100% | 3.46 | 100% | – | 100% | 100% | 100%
